Test results reported in the RepoRT retention time repository.

Test: Agilent ZORBAX 300 SB-C18, 150 × 1 mm, 3.5 µm; A: water + 0.01% heptafluorobutyric acid; B: acetonitrile + 0.01% heptafluorobutyric acid; gradient (min/%B) 0/0 100/90
Conditions: stereoisomer not certain

Row | LC retention time | Structure (SMILES)
1 | 10.6 min | CC(=CCc1ccccc1)N=Nc1nc(=S)[nH][nH]1
2 | 12.7 min | CCC(C)n1cc(C=C2NC(=O)NC2=O)c2ccccc21 (stereo not drawn)
3 | 9.76 min | CCn1c2ccccc2c2cc(N)ccc21
4 | 12.5 min | O=C(C=Cc1ccccc1)c1cc(O)ccc1O
5 | 9.71 min | Cc1[nH]c2ccccc2c1C=NNC(N)=S
6 | 8.03 min | O=c1[nH]c(-c2ccccc2)cn1C1CCNCC1
7 | 10.8 min | Cc1ccc(C=NNC(N)=S)cc1
8 | 16.1 min | O=C(O)c1ccc2c(c1)C1C=CCC1C(c1cccc3ccccc13)N2 (stereo not drawn)
9 | 9.84 min | Nc1ccc(OCc2ccccc2)cc1
10 | 13.9 min | CC(=O)Oc1ccc(-c2cnc3ccccc3n2)cc1
11 | 10.7 min | CC(C)=NNc1nccc2ccccc12
12 | 9.59 min | COC(=O)c1cccc(N=C2N=C(N)c3ccccc32)c1
13 | 12.8 min | Cc1ccc2[nH]ccc2c1
14 | 13.4 min | CCOC(=O)c1c(-c2ccccc2)c[nH]c1C
15 | 15.7 min | O=C1C(=Cc2ccoc2)CCCC1=Cc1ccoc1
16 | 13.7 min | c1ccc(SCSc2ccccn2)nc1
17 | 13.1 min | O=C1CCC=C1CSc1ccccc1
18 | 12.5 min | CCn1c(-c2ccccc2)csc1=Nc1ccc(C)c(C)c1
19 | 13 min | CC(=O)c1c(-c2ccccc2)[nH]c2ccccc12
20 | 12.1 min | O=C(NC(c1ccccc1)c1ccccc1)c1cccnc1
21 | 7.74 min | O=C(O)CNC(=O)Nc1ccccc1
22 | 10.3 min | CC(=O)Nc1ccc(C2=NNC(c3ccccc3)C2)cc1 (stereo not drawn)
23 | 10 min | Cc1n[nH]c(=O)nc1N=NCc1c[nH]c2ccccc12
24 | 11.2 min | O=C(O)C1Cc2ccccc2CN1C(=O)c1ccccc1 (stereo not drawn)
25 | 15.6 min | COC(=O)c1c(C)[nH]c(-c2ccccc2)c1-c1ccccc1
26 | 8.44 min | O=c1cc(O)c2ccccc2[nH]1

Row | LC retention time | Structure (SMILES)
27 | 13.7 min | CCOC(=O)C1=C(C(=O)OC)CN(c2ccccc2)N1
28 | 11.2 min | CCNC(=S)NCCc1c[nH]c2ccccc12
29 | 6.42 min | CN1Cc2ccccc2CC1C(=O)O (stereo not drawn)
30 | 11.6 min | COc1ccc(-c2ccccc2)cc1N
31 | 6.28 min | Nc1cccc(CO)c1
32 | 10.5 min | CC1(C)SC2C(NC(=O)Cc3ccccc3)C(=O)N2C1C(=O)O (stereo not drawn)
33 | 8.61 min | CC(C)c1ccccc1NC(=O)CN
34 | 6.25 min | CNC(=O)c1ccc(N)cc1
35 | 7 min | Cc1cc(C(N)=O)c2ccccc2n1
36 | 9 min | CC1(C)CC(NC(=S)Nc2ccccc2)CC(C)(C)N1
37 | 13.2 min | Cc1ccc(NC(=O)c2c(C)[nH]c(C)c2C)c(C)c1
38 | 10.3 min | Nn1cnn(Cc2ccccc2)c1=S
39 | 12.7 min | O=Cc1c(-c2ccccc2)[nH]c2ccccc12
40 | 10.9 min | CC(C)(C)c1ccc(-c2nc(NCc3cccnc3)c3ccccc3n2)cc1
41 | 6.01 min | Cc1ccccn1
42 | 7.01 min | c1ccc(CN2CCCC2)nc1
43 | 7.6 min | NCc1ccccc1
44 | 18.4 min | CCc1cccc2ccn(Cc3ccccc3)c12
45 | 16.4 min | Cc1ccc2cc(-c3cccs3)[nH]c2c1
46 | 7.24 min | O=c1[nH]c2ccccc2[nH]c1=S
47 | 5.86 min | O=C(O)c1c2ccccc2nc2ccccc12
48 | 5.53 min | CC(=O)NC(NC(C)=O)c1ccncc1
49 | 15 min | CC(c1ccccc1)C1Nc2ccccc2C(=O)N1c1ccccc1 (stereo not drawn)
50 | 10.2 min | CCn1c(=O)n(CC)c2cc(C=O)ccc21
51 | 10.4 min | CC(=O)C=C(N)c1ccccc1

The remaining lines, values behind:

Row | Structure (SMILES) | LC retention time
52 | CC12CCC(O)CC1=CCC1C2CCC2(C)C(N)CCC12 (stereo not drawn) | 8.88 min
53 | COc1cc(N)c(N2CCOCC2)cc1OC | 7.99 min
54 | COc1cc(C(=O)Nc2ccc(OCC(N)=O)cc2)cc(OC)c1OC | 9.54 min
55 | C[N+]1(CCOCc2ccccc2)CC[N+](C)(CCOCc2ccccc2)CC1 (stereo not drawn) | 9.32 min
56 | CC(C)c1ccc(C=NNC(=O)C[n+]2ccccc2)cc1 | 10.4 min
57 | Nc1ccc2cc3ccc(N)cc3nc2c1 | 9.09 min
58 | Cc1nn[nH]n1 | 2.16 min
59 | NCCCCCCO | 6.25 min
60 | CCCCN(C)CCCC | 8.6 min
61 | CCOC(=O)c1c(N)n(C(C)=O)[nH]c1=O | 6.93 min
62 | CCC1(c2ccccc2)C(=O)NC(=O)N(C)C1=O (stereo not drawn) | 11.3 min
63 | C=CCC1(CC=C)CNCCN1 | 7.33 min
64 | NCCCCCCCCCCCCN | 8.26 min
65 | CCCCCCNC(=O)c1ccc(OC(C)=O)cc1 | 13.8 min
66 | CNCc1n[nH]c(=O)[nH]1 | 2.58 min
67 | COc1ccc2c(c1)C(C)CC(C)(C)N2 (stereo not drawn) | 9.43 min
68 | CCOc1ccc(CCNC(=O)N(c2ccccc2)c2ccccc2)cc1OCC | 16 min
69 | O=C(CN1CCN(C(=O)CNC2CCCCC2)CC1)NC1CCCCC1 | 9.54 min
70 | O=CNC1CCCCC1 | 8.38 min
71 | CC1(C)CC(=O)c2cc3c(nc2C1)CC(C)(C)CC3=O | 13.2 min
72 | CC(=NCCN1CCNCC1)C1=C(O)CC(C)(C)CC1=O | 8.02 min
73 | CCc1ccncc1 | 6.94 min
74 | CC(=O)NC1CCN(C)C2CCCCC12 (stereo not drawn) | 7.11 min
75 | c1ccc(CCN(Cc2ccncc2)Cc2ccccn2)cc1 | 8.96 min

Row | Structure (SMILES) | LC retention time
76 | Cc1ccc(NC(=S)NC2CC(C)(C)NC(C)(C)C2)cc1 | 9.5 min
77 | c1cnccn1 | 5.91 min
78 | Cc1ccc(N)cc1 | 7.62 min
79 | C[N+](C)(C)CCOC(=O)c1ccccc1 | 8.36 min
80 | CCCc1cc2c(cc1N)OCO2 | 9.27 min
81 | CC(C)(C)c1ccc(C(=O)NC(CC(=O)O)c2ccc(C(C)(C)C)cc2)cc1 (stereo not drawn) | 16.7 min
82 | Cn1c(=O)[nH]cc(CC(=O)O)c1=O | 5.4 min
83 | OC(CCN1CCCC1)(c1ccccc1)C1CCCCC1 (stereo not drawn) | 11.5 min
84 | COc1ccc(OC)c2c1C(c1cccc(N)c1)OC1CCCCC21 (stereo not drawn) | 12.9 min
85 | COCCCN | 5.72 min
86 | NC(=O)C1CCN(C(=O)c2ccco2)CC1 | 6.85 min
87 | CCNC1(c2cccs2)CCCCC1 | 9.19 min
88 | CCCNC | 5.85 min
89 | c1cn[nH]n1 | 2.1 min
90 | CN1CCCCC1 | 6.61 min
91 | CCN(CC)CC(=O)Nc1c(C)ccc(O)c1C | 8.16 min
92 | CC(C)c1ccc(-c2cc(-c3ccccc3)c3c(ccc4ncccc43)n2)cc1 | 20.4 min
93 | NCCN | 5.99 min
94 | c1ccc2c(c1)ccc1cccnc12 | 12.7 min
95 | CCC1(c2ccccc2)CCC(=O)NC1=O (stereo not drawn) | 11.5 min
96 | CCCCCCCCCCCC(N)=O | 16.7 min
97 | CCN1CCNCC1 | 6.67 min
98 | CNC(C)C(=O)c1ccccc1 (stereo not drawn) | 8.4 min
